The values that follow come from publication PMC11948302, “OATP1B-type Transport Function Is a Determinant of Aromatase Inhibitor–Associated Arthralgia Susceptibility” (Cancer Research Communications, 2025).

Data set [1] is described as follows: In vivo pharmacokinetic studies in mice (plasma and liver, LC/MS-MS). The following applies: for AUC fold change vs. WT / AUC(0-t) / Cmax: exemestane 20 mg/kg oral; for AUC fold change vs. WT: 95% confidence interval; for AUC(0-t) / Cmax: female, FVB, mouse, plasma, po, 20 mg/kg, mean with SEM; for AUC(0-t): AUC0–6h.
Method: The analysis was conducted using a Vanquish UHPLC aligned with a Quantiva triple-stage quadrupole mass spectrometer (Thermo Fisher Scientific). An ACQUITY UPLC BEH C18 Column (130 Å, 1.7 μm, 2.1 mm × 50 mm, Waters Co.) protected by ACQUITY UPLC BEH Shield RP18 VanGuard Pre-column (130 Å, 1.7 μm, 2.1 mm × 5 mm, Waters Co.) was used for analyte separation. The injection volume of the sample was 10 μL. The temperature of the column was kept at 40°C, whereas the autosampler rack was kept at 4°C. The mobile phase consisted of solvent A, which was a solution of 0.1% acetic acid in LC/MS-grade water, and solvent B, which was a solution of 0.1% formic acid in acetonitrile. The total run time was 4.5 minutes. The following were the gradient conditions: 0.3 mL/minutes was the flow rate for the following intervals: 0 to 0.5 minutes, 30% B; 0.5 to 3.0 minutes, 30% to 95% B; 3.0 to 4.0 minutes, 95% B; and 4.001 to 4.5 minutes, 95% to 30% B. The vaporizer was adjusted to 360°C, and the ion transfer tube temperature was 340°C. The mass spectrometry assay was configured with a positive voltage of 3600 V delivered to the ESI capillary. The collision gas utilized was argon, with a pressure of 1.5 mTorr. The mass spectrometer was set up with the following optimized parameters: 1 arbitrary unit (Arb) for sweep gas, 5 Arb for auxiliary gas, and 25 Arb for sheath gas. […] The accuracy, expressed as a percent bias varied from −7.80% to 5.10%, whereas the inter-assay and intra-assay precisions ranged from 2.19% to 7.09% according to the results of assay validation tests. The lower limit of quantification was 0.4 ng/mL.
Letrozole was quantified using an LC/MS-MS method described previously ([14]). A Vanquish UHPLC and Quantiva triple-stage quadrupole mass spectrometer (Thermo Fisher Scientific) were used in the analysis. Analytes were separated chromatographically using a C18 AQUASIL guard cartridge (2.1 mm × 10 mm, 3 μm; Thermo Fisher Scientific) and an Accucore aQ column (50 mm × 2.1 mm, 2.6 μm). The temperature of the column was set at 40°C, whereas the autosampler was kept at 4°C. The mobile phase consisted of solvent A, which was a solution of 0.1% acetic acid in LC/MS-grade water, and solvent B, which was a solution of 0.1% formic acid in acetonitrile. A gradient elution method was employed for 5.0 minutes, with a flow rate of 0.4 mL/minutes. […] Injections were performed using 3 μL of the extracted samples. The mass spectrometer parameters were optimized and configured as follows: 25 Arb for sheath gas, 5 Arb for auxiliary gas, and 1 Arb for sweep gas. The temperature of the ion transfer tube and vaporizer was adjusted to 340°C and 360°C, respectively. Argon was used as the collision gas at a pressure of 1.5 mTorr. […] The lower limit of quantification was 5 ng/mL.
Female wild-type, Oatp1a/1b cluster-knockout mice [Oatp1a/1b^(−/−) mice] and Oatp1a/1b^(−/−) mice with transgenic hepatic expression of OATP1B1 [OATP1B1^(tg) mice] or OATP1B3 [OATP1B3^(tg) mice] were all on an FVB background (RRID: IMSR_T000141), and experimental groups were age- and weight-matched for each experiment. Female mice with a deficiency of all Cyp3a isoforms [Cyp3a^(−/−)] were similarly matched with FVB wild-type mice. All mice were bred in-house. Littermates of the same sex and genotype were housed in groups of maximally five animals in a temperature- and light-controlled environment (12-hour light/dark cycles) in cages lined with absorbent bedding. Mice were given free access to standard food and water.
For in vivo pharmacokinetic studies, mice were randomized into experimental groups of equal size.
The test system of another data set is patients. The following applies: 25 mg three times a week vs 25 mg daily, randomized phase III; cited from earlier work.

As to `C=C1C[C@@H]2[C@H](CC[C@]3(C)C(=O)CC[C@@H]23)[C@@]2(C)C=CC(=O)C=C12` [Exemestane], the results for the “AUC fold change vs. WT” value in data set [1] (OATP1B3^(tg) vs wild-type mice) and in data set [1] (Oatp1a/1b^(−/−) vs wild-type mice) were 2.27 (1.49–3.44) and 2.25 (1.60–3.18), respectively. Besides, the AUC(0-t) in data set [1] (OATP1B3^(tg) female mice) came out at 294 ng·h/mL; in data set [1] (Oatp1a/1b^(−/−) female mice) it was 292 ng·h/mL; in data set [1] (wild-type female mice), 130 ng·h/mL. Moreover, the values for the Cmax in data set [1] (OATP1B3^(tg) female mice), in data set [1] (Oatp1a/1b^(−/−) female mice) and in data set [1] (wild-type female mice) were 152 ng/mL, 159 ng/mL and 94 ng/mL, respectively. In addition, the “liver levels, wild-type vs Oatp1a/1b^(−/−) mice” value in data set [1] (single oral dose, letrozole 10 mg/kg or exemestane 20 mg/kg) was “higher levels”. In addition, the “liver concentrations in OATP1B1^(tg) or OATP1B3^(tg) mice” value in data set [1] (single oral dose, letrozole 10 mg/kg or exemestane 20 mg/kg, relative to Oatp1a/1b^(−/−) and wild-type) was “partially restored”. Also, the “suppression of estrogen levels and reduction of breast cancer tissue proliferation, intermittent vs standard daily dosing” value in the data set on patients is reported as “non-inferior”.

For orientation: AUC(0-t) means the area under the concentration-time curve up to a stated or last time point. Lower therefore signals low exposure. By Cmax is commonly meant the highest concentration seen after dosing.
